Experimental data taken from patent US6342504B1, “Aromatic heterocyclic derivatives as enzyme inhibitors” (priority 1994, dated 2002).
Where a name gives a salt, the structure may show the parent alone. Read-outs that look alike come from different tables or passages of the source.

Tests used:
[1] = biological target: human plasmin (Homo sapiens, UniProt P00747); assay: biochemical
Procedure: (§1) The ability of compounds of the present invention to act as a selective inhibitor of thrombin catalytic activity was assessed by determining the concentration of compound which inhibited the activity of this enzyme by 50%, (IC50), and comparing this value to that determined for all or some of the following related serine proteases: recombinant tissue plasminogen activator (rt-PA), plasmin, activated protein C, chymotrypsin, factor Xa and trypsin.
(§2) The buffer used for all assays was HBSA (10 mM HEPES, pH 7.5, 150 mM sodium chloride, 0.1% bovine serum albumin).
(§3) The assay for IC50 determinations was conducted by combining in appropriate wells of a Corning microtiter plate, 50 microliters of HBSA, 50 microliters of the test compound at a specified concentration (covering a broad concentration range) diluted in HBSA (or HBSA alone for VO (uninhibited velocity) measurement), and 50 microliters of the enzyme diluted in HBSA. Following a 30 minute incubation at ambient temperature, 50 microliters of the substrate at the concentrations specified below were added to the wells, yielding a final total volume of 200 microliters. The initial velocity of chromogenic substrate hydrolysis was measured by the change in absorbance at 405 nm using a Thermo Max® Kinetic Microplate Reader over a 5 minute period in which less than 5% of the added substrate was utilized. The concentration of added inhibitor which caused a 50% decrease in the initial rate of hydrolysis was defined as the IC50 value.
Plasmin catalytic activity was determined using the chromogenic substrate, S-2366 [L-pyroglutomyl-L-prolyl-L-arginine-p-nitroaniline hydrochloride], which was obtained from Pharmacia-Upjohn. The substrate was made up in deionized water followed by dilution in HBSA prior to the assay in which the final concentration was 300 micromolar (about 2.5-times Km). Purified human plasmin was obtained from Enzyme Research Laboratories, Inc. The enzyme was diluted into HBSA prior to assay in which the final concentration was […].

[2] = biological target: T1, human aPC (Homo sapiens, UniProt P04070); assay: biochemical; conditions: 30 minute incubation
T1 construct: purchased Hematologic Technologies, Inc
T1 sequence (P04070 43-197): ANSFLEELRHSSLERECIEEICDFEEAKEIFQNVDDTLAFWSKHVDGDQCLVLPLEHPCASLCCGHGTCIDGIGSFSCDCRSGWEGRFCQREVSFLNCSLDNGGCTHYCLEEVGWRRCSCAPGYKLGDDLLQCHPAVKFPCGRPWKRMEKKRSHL
T1 sequence (P04070 212-461): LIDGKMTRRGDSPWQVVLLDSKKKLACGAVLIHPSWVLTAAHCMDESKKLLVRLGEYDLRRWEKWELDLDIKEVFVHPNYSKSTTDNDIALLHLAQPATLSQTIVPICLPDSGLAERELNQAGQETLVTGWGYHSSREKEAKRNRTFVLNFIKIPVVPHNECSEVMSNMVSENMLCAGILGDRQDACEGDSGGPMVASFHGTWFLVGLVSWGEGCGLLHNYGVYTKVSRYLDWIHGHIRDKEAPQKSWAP
Procedure: as §2
Following a 30 minute incubation at ambient temperature, 50 microliters of the substrate at the concentrations specified below were added to the wells, yielding a final total volume of 200 microliters.
Activated Protein C (aPC) Assay
aPC catalytic activity was determined using the chromogenic substrate, Pefachrome PC (delta-carbobenzloxy-D-lysine-L-prolyl-L-arginine-p-nitroaniline dihydrochloride), obtained from Pentapharm Ltd.). […] Purified human aPC was obtained from Hematologic Technologies, Inc. The enzyme was diluted into HBSA prior to assay in which the final concentration was 1.0 nM.

[3] = biological target: T2, human alpha thrombin (Homo sapiens, UniProt P00734); assay: Thrombin (fIIa) IC50 assay, chromogenic substrate Pefachrome t-PA; assay type: biochemical
T2 construct: Purified human alpha-thrombin; purchased Enzyme Research Laboratories, Inc
Procedure: as §1, §2, §3
Enzyme activity was determined using the chromogenic substrate, Pefachrome t-PA (CH3SO2-D-hexahydrotyrosine-glycyl-L-Arginine-p-nitroaniline, obtained from Pentapharm Ltd.). The substrate was reconstituted in deionized water prior to use. Purified human a-thrombin was obtained from Enzyme Research Laboratories, Inc. The buffer used for all assays was HBSA (10 mM HEPES, pH 7.5, 150 mM sodium chloride, 0.1% bovine serum albumin).
IC50 determinations were conducted where HBSA ([…]), a-thrombin (50 μl) and inhibitor (50 μl) (covering a broad concentration range), were combined in appropriate wells and incubated for 30 minutes at room temperature prior to the addition of substrate Pefachrome-t-PA (50 μl). The initial velocity of Pefachrome t-PA hydrolysis was measured by the change in absorbance at 405 nm using a Thermo Max® Kinetic Microplate Reader over a 5 minute period in which less than 5% of the added substrate was utilized. The concentration of added inhibitor which caused a 50% decrease in the initial rate of hydrolysis was defined as the IC50 value.

[4] = biological target: T3, Human rt-PA (Activase) (Homo sapiens, UniProt P00750); assay: biochemical; conditions: 30 minute incubation
T3 construct: purchased Genentech Inc
T3 sequence (P00750 36-562): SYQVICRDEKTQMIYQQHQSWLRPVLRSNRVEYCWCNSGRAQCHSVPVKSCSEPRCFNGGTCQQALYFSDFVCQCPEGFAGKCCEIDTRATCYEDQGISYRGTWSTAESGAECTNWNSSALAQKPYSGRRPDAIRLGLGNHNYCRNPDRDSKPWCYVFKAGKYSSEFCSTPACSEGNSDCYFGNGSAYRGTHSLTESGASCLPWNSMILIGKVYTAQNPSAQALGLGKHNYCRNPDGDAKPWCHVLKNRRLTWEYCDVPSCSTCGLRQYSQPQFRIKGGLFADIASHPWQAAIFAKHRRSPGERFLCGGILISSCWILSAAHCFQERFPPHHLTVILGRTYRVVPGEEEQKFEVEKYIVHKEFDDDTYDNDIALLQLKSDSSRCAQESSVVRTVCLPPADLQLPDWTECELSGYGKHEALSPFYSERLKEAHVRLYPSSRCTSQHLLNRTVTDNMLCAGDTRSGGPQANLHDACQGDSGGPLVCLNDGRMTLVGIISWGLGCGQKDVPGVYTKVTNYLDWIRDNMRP
Procedure: as §1, §2, §3
Recombinant Tissue Plasminogen Activator (rt-PA) Assay
rt-PA catalytic activity was determined using the substrate, Pefachrome t-PA (CH3SO2-D-hexahydrotyrosine-glycyl-L-arginine-p-nitroaniline, obtained from Pentapharm Ltd.). The substrate was made up in deionized water followed by dilution in HBSA prior to the assay in which the final concentration was 500 micromolar (about 3-times Km). Human rt-PA (Activase®) was obtained from Genentech Inc. The enzyme was reconstituted in deionized water and diluted into HBSA prior to the assay in which the final concentration was 1.0 nM.

[5] = 30 minute incubation, read-out: Plasmin IC50 (Table 3B)
[6] = 30 minute incubation, read-out: Plasmin (IC50) (Table 3A)
[7] = read-out: aPC (IC50) (Table 3A)
[8] = read-out: rt-PA (IC50) (Table 3A)
[9] = 30 minute incubation, read-out: IC50 Plasmin (Table 2)
[10] = 1.0 nM enzyme, read-out: IC50 aPC (Table 2)
[11] = 1.0 nM enzyme, read-out: IC50 rt-PA (Table 2)
[12] = 30 minute incubation, read-out: Thrombin IC50 (Table 3C)

human plasmin, sequence (P00747 97-580): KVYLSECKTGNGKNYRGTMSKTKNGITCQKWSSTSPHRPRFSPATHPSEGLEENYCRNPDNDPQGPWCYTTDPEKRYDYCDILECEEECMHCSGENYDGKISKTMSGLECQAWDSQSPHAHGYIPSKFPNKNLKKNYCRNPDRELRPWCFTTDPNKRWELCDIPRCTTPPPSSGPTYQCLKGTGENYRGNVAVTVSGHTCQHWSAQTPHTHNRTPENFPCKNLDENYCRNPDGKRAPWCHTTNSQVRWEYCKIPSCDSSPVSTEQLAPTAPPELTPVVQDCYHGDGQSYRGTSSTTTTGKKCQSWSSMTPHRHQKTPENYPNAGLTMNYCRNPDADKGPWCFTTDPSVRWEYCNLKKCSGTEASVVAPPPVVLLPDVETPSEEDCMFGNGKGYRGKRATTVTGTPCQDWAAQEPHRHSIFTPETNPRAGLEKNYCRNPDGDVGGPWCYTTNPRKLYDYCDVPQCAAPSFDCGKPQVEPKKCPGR
human plasmin, sequence (P00747 581-810): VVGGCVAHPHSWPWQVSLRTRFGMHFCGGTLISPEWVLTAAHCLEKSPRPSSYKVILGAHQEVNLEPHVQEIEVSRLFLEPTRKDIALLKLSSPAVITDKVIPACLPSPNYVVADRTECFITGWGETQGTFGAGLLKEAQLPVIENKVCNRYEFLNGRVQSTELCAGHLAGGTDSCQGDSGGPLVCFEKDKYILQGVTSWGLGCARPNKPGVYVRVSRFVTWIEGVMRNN

In the case of `COc1ccc(OC)c(S(=O)(=O)Nc2ccc(C)n(CC(=O)N[C@H](C=O)CCCNC(=N)N)c2=O)c1` [Compound 126C, 3-[(2,5-dimethoxyphenyl)sulfonylamino-6-methyl-2-oxo-1,2-dihydro-pyridyl]acetyl-L-argininal], the IC50 [1, 5] is reported as greater than 2500 nM, the “aPC IC50 (Table 3B)” value [2] is reported as “inactive” and the IC50 [3] is reported as 0.519 nM. The “rtPA IC50 (Table 3B)” value [4] was “inactive”.
For `CS(=O)(=O)Nc1c(CCc2ccccc2)ccn(CC(=O)N[C@H](C=O)CCCNC(=N)N)c1=O` [Compound 134B, [3-methylsulfonylamino-4-(2-phenylethyl)-2-oxo-1,2-dihydropyridyl]acetyl-L-argininal], the IC50 ([1]; read-out: Plasmin IC50 (Table 3B)) was greater than 2500 nM, the “aPC IC50 (Table 3B)” value [2] was “inactive” and the IC50 [3] was 7.95 nM. The IC50 ([4]; read-out: rtPA IC50 (Table 3B)) was greater than 2500 nM.
For `COc1ccccc1S(=O)(=O)Nc1cccn(CC(=O)N[C@H](C=O)CCCNC(=N)N)c1=O` [Compound 2-OMe-phenyl, [3-(2-methoxylphenyl)sulfonylamino-2-oxo-1,2-dihydropyridyl]acetyl-L-argininal], the IC50 [1, 6] was greater than 2500 nM, the IC50 [2, 7] was greater than 2500 nM and the IC50 [3] was 1.98 nM. The IC50 [4, 8] was greater than 2500 nM.
`Cc1ccc(F)cc1S(=O)(=O)Nc1ccc(C)n(CC(=O)N[C@H](C=O)CCCNC(=N)N)c1=O` [Compound 126B, [3-(5-fluoro-2-methylphenyl)sulfonylamino-6-methyl-2-oxo-1,2-dihydro-pyridyl]acetyl-L-argininal] was tested, and the IC50 [1, 5] was greater than 2500 nM, the “aPC IC50 (Table 3B)” value [2] was “inactive” and the IC50 [3] was 0.882 nM. For the same molecule, the “rtPA IC50 (Table 3B)” value [4] was “inactive”.
`N=C(N)NCCC[C@@H](C=O)NC(=O)Cn1cccc(NS(=O)(=O)c2cccc(C(F)(F)F)c2)c1=O` [Compound 3-CF3-phenyl, [3-(3-trifluoromethylphenyl)sulfonylamino-2-oxo-1,2-dihydro-pyridyl]acetyl-L-argininal] was tested, and the IC50 [1, 6] was greater than 2500 nM, the IC50 [2, 7] was greater than 2500 nM and the IC50 [3] was 3.1 nM. For the same molecule, the IC50 [4, 8] was greater than 2500 nM.
`COC(=O)c1ccccc1CS(=O)(=O)Nc1cccn(CC(=O)N[C@H](C=O)CCCNC(=N)N)c1=O` [Compound 121M] was tested, and the IC50 [1, 5] was greater than 2500 nM and the IC50 [3] was 0.623 nM.
For `N=C(N)NCCC[C@@H](C=O)NC(=O)Cn1cccc(NS(=O)(=O)c2ccccc2)c1=O` [Compound B, (3-phenylsulfonylamino-2-oxo-1,2-dihydro-pyridyl)acetyl-L-argininal], the IC50 [1, 9] was greater than 2500 nM, the IC50 [2, 10] was greater than 2500 nM and the IC50 [3] was 0.98 nM. It also gave an IC50 [4, 11] greater than 2500 nM.
“[2,3-methylenedioxy-benzene)sulfonylamino-2-oxo-1,2-dihydropyridyl]acetyl-L-argininal [Compound 152D]” showed an IC50 [3, 12] of 0.794 nM.
For `COc1cccc(S(=O)(=O)Nc2ccc(C)n(CC(=O)N[C@H](C=O)CCCNC(=N)N)c2=O)c1` [Compound 153A, [3-(3-methoxylphenyl)sulfonylamino-6-methyl-2-oxo-1,2-dihydro-pyridyl]acetyl-L-argininal], the IC50 ([1]; 30 minute incubation, read-out: Plasmin IC50 (Table 3C)) was greater than 2500 nM, the IC50 ([2]; read-out: aPC IC50 (Table 3C)) was greater than 2500 nM and the IC50 [3, 12] was 0.456 nM. It also gave an IC50 ([4]; read-out: rtPA IC50 (Table 3C)) greater than 2500 nM.
`Cc1ccc(NS(=O)(=O)Cc2ccccc2)c(=O)n1CC(=O)N[C@H](C=O)CCCNC(=N)N` [Compound C, (3-benzylsulfonylamino-6-methyl-2-oxo-1,2-dihydro-1-pyridyl)acetyl-L-argininal, trifluoroacetate salt] gave an IC50 [1, 9] greater than 2500 nM and an IC50 [3] of 0.467 nM.
`Cc1ncc(NS(=O)(=O)Cc2ccccc2)c(=O)n1CC(=O)N[C@H](C=O)CCCNC(=N)N` [Compound D, (5-benzylsulfonylamino-2-methyl-6-oxo-1,6-dihydro-1-pyrimidinyl)acetyl-L-argininal, trifluoroacetate salt] gave an IC50 [1, 9] greater than 2500 nM, an IC50 [2, 10] greater than 2500 nM and an IC50 [3] of 2.32 nM. For the same molecule, the IC50 [4, 11] was greater than 2500 nM.
`N=C(N)NCCC[C@@H](C=O)NC(=O)Cn1cccc(NS(=O)(=O)CCc2ccccc2)c1=O` [Compound 121G, [3-(phenethyl)sulfonylamino-2-oxo-1,2-dihydropyridyl]acetyl-L-argininal] gave an IC50 [1, 5] of roughly 2500 nM and an IC50 [3] of 46.9 nM.
`N=C(N)NCCC[C@@H](C=O)NC(=O)Cn1cccc(NS(=O)(=O)Cc2cc(F)ccc2F)c1=O` [Compound 121P, [3-(2,5-difluorobenzyl)sulfonylamino-2-oxo-1,2-dihydropyridyl]acetyl-L-argininal] was tested, and the IC50 [1, 5] was greater than 2500 nM, the “aPC IC50 (Table 3B)” value [2] was “inactive” and the IC50 [3] was 1.73 nM. For the same molecule, the IC50 ([4]; read-out: rtPA IC50 (Table 3B)) was greater than 2500 nM.
`Cc1cccc(S(=O)(=O)Nc2cccn(CC(=O)N[C@H](C=O)CCCNC(=N)N)c2=O)c1` [Compound 3-Me-phenyl, [3-(3-methyiphenyl)sulfonylamino-2-oxo-1,2-dihydro-pyridyl]acetyl-L-argininal] showed an IC50 [1, 6] greater than 2500 nM, an IC50 [2, 7] greater than 2500 nM and an IC50 [3] of 0.85 nM. For the same molecule, the IC50 [4, 8] was greater than 2500 nM.
Work on “[5-(1,4-benzodioxan)sulfonylamino-6-methyl-2-oxo-1,2-dihydro-pyridyl]acetyl-L-argininal [Compound 153B]” yielded an IC50 [3, 12] of 0.274 nM.
`COc1cccc(S(=O)(=O)Nc2cccn(CC(=O)N[C@H](C=O)CCCNC(=N)N)c2=O)c1` [Compound 3-OMe-phenyl, [3-(3-methoxylphenyl)sulfonylamino-2-oxo-1,2-dihydropyridyl]acetyl-L-argininal] was tested, and the IC50 [1, 6] was greater than 2500 nM, the IC50 [2, 7] was greater than 2500 nM and the IC50 [3] was 0.65 nM. For the same molecule, the IC50 [4, 8] was greater than 2500 nM.
With `CCc1ccc(NS(=O)(=O)c2cc(F)ccc2C)c(=O)n1CC(=O)N[C@H](C=O)CCCNC(=N)N` [Compound 126F, [3-(5-fluoro-2-methylphenyl)sulfonylamino-6-ethyl-2-oxo-1,2-dihydro-pyridyl]acetyl-L-argininaln] the IC50 [1, 5] was roughly 2500 nM, the “aPC IC50 (Table 3B)” value [2] was “inactive” and the IC50 [3] was 0.71 nM. For the same molecule, the “rtPA IC50 (Table 3B)” value [4] was “inactive”.
With “[5-(2,3-dihydrobenzofuran)sulfonylamino-6-methyl-2-oxo-1,2-dihydro-pyridyl]acetyl-L-argininal [Compound 153C]” the IC50 [3, 12] was 0.266 nM.
“[5-(1,3-benzodioxole)sulfonylamino-2-oxo-1,2-dihydropyridyl]acetyl-L-argininal [Compound 152A]” gave an IC50 [3, 12] of 0.807 nM.
Molecule “[5-(2,3-dioxaspirocyclohexyl)-sulfonylamino-2-oxo-1,2-dihydropyridyl]acetyl-L-argininal [Compound 152C]” has an IC50 [3, 12] of 6.01 nM.
“[5-(1,3-benzodioxole)sulfonylalmino-6-methyl-2-oxo-1,2-dihydro-pyridyl]acetyl-L-argininal [Compound 153D]” showed an IC50 [3, 12] of 0.31 nM.
In the case of `N=C(N)NCCC[C@@H](C=O)NC(=O)Cn1cccc(NS(=O)(=O)c2ccccc2F)c1=O` [Compound 121A], the IC50 [1, 5] is reported as greater than 2500 nM and the IC50 [3] is reported as 14.7 nM.
For `COc1cccc(S(=O)(=O)Nc2ccc(=O)n(CC(=O)N[C@H](C=O)CCCNC(=N)N)c2)c1OC` [Compound 152B, [5-(2,3-dimethoxy-benzene)sulfonylamino-2-oxo-1,2-dihydropyridyl]acetyl-L-argininal], the IC50 [3, 12] was 14.9 nM.
